Data: ChEMBL document CHEMBL1909046, “DrugMatrix in vitro pharmacology data”
Where a SMILES comes first, the peptide text is derived from it. Bridges are numbered along the chain shown (N, C = ends). [ ]: non-standard residue; d: D form. The star is where a group is joined. Threoninol(2S,3R) = C[C@@H](O)[C@H](CO)N*

Experiments:
Endothelin-1 receptor = target: T1, Endothelin-1 receptor (Homo sapiens, UniProt P25101); type: cell membranes, Membrane; settings: cho-k1; note: in other assays of this panel Not Active means under 50% inhibition at 10 µM
T1 sequence (P25101 whole entry): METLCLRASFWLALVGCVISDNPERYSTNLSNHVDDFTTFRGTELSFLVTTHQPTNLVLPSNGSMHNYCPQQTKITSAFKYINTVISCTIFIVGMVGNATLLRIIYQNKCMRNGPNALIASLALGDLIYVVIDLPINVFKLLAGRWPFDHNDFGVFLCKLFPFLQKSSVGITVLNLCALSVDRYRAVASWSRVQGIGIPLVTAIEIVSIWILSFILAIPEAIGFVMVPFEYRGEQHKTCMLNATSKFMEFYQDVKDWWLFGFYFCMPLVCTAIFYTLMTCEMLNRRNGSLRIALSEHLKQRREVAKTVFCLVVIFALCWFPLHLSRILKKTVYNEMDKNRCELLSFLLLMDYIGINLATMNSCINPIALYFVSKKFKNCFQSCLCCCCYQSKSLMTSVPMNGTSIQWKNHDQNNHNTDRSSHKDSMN

[1] = target: Tyrosine-protein kinase Fyn (Homo sapiens, UniProt P06241); assay: biochemical; type: cell-based, Insect cells; settings: insect cells;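 note: enzymatic inhibition of Fyn kinase activity measured with Poly(Glu:Tyr) as the phosphorylation substrate; in other assays of this panel Not Active means under 50% inhibition at 10 µM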
Chain of Tyrosine-protein kinase Fyn (P06241 whole entry): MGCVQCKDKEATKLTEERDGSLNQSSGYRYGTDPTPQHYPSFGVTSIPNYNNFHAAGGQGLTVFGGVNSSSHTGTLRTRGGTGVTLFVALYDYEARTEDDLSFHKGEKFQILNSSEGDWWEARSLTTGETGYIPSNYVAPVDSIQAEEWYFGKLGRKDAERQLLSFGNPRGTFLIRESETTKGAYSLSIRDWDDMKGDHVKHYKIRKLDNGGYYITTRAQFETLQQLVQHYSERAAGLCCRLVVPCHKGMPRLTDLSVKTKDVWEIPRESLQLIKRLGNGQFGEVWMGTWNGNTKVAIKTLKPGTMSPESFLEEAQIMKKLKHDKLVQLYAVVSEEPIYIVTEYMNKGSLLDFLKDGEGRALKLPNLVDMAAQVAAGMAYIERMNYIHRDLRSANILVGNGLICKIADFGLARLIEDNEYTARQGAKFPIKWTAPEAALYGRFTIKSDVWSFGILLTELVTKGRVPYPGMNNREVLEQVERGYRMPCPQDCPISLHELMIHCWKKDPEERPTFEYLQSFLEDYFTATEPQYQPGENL

[2] = target: T2, Cysteinyl leukotriene receptor 1 (Homo sapiens, UniProt Q9Y271); type: cell membranes, CHO-K1, Membrane; settings: cho-k1; note: in other assays of this panel Not Active means under 50% inhibition at 10 µM
T2 sequence (Q9Y271 whole entry): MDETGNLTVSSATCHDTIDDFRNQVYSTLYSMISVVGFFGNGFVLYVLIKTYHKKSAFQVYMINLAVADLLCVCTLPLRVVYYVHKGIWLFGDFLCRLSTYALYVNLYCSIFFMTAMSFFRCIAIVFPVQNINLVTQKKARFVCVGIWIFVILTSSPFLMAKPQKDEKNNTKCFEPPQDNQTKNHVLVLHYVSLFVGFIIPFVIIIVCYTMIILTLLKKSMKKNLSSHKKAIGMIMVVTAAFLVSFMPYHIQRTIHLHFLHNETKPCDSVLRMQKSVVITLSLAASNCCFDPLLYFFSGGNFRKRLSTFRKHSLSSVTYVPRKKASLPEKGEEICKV

[3] = target: T3, Muscarinic acetylcholine receptor M4 (Homo sapiens, UniProt P08173); type: cell membranes, CHO-K1, Membrane; settings: cho-k1; note: in other assays of this panel Not Active means under 50% inhibition at 10 µM
T3 sequence (P08173 whole entry): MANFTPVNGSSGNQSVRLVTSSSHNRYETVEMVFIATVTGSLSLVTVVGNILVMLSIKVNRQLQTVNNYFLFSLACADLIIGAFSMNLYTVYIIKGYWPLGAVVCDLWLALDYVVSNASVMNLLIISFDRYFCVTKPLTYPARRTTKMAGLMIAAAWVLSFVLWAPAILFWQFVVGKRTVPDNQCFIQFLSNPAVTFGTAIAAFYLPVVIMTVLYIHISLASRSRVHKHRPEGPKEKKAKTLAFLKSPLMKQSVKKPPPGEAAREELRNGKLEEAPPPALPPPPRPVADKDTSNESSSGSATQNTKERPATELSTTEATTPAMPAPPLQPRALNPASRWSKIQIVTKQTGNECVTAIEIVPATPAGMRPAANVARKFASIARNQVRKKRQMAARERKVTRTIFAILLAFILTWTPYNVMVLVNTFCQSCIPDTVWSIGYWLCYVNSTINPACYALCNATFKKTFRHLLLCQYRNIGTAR

[4] = DRUGMATRIX: Imidazoline I2, Central radioligand binding (ligand: [3H] Idazoxan); type: cell membranes, Rattus norvegicus, Wistar, Cerebral cortex, Membrane; settings: Not Active = under 50% inhibition at 10 µM
Histamine H2 receptor = Histamine H2 receptor (Homo sapiens, UniProt P25021); type: cell membranes, CHO-K1, Membrane; settings: cho-k1; note: in other assays of this panel Not Active means under 50% inhibition at 10 µM
Chain of Histamine H2 receptor (P25021 whole entry): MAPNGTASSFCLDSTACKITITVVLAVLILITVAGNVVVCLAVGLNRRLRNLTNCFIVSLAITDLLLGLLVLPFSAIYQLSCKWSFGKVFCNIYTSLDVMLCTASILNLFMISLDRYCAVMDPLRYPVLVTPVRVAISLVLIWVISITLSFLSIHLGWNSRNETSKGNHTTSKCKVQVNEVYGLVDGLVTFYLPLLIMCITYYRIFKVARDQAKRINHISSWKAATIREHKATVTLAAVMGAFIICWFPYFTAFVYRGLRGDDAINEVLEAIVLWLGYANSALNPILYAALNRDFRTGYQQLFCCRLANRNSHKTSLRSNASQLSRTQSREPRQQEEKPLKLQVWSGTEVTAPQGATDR

COc1ccccc1C(=O)N1CCC(Cc2ccccc2)CC1
Not Active: IC50 (Endothelin-1 receptor) | IC50 [1] | IC50 [2] | IC50 [3] | IC50 [4] | Ki [4] | IC50 (Histamine H2 receptor)

Cc1ccccc1C(=O)N1CCC(Cc2ccccc2)CC1
Not Active: IC50 (Endothelin-1 receptor) | IC50 [1] | IC50 [2] | IC50 [3] | IC50 [4] | Ki [4] | IC50 (Histamine H2 receptor)

O=C1CC[C@H](N2C(=O)c3ccccc3C2=O)C(=O)N1
Not Active: IC50 (Endothelin-1 receptor) | IC50 [1] | IC50 [2] | IC50 [3] | IC50 [4] | Ki [4] | IC50 (Histamine H2 receptor)

N=C(Nc1ccccc1)Nc1ccccc1
Not Active: IC50 (Endothelin-1 receptor) | IC50 [1] | IC50 [2] | IC50 [3] | IC50 [4] | Ki [4] | IC50 (Histamine H2 receptor)

C[C@@H](O)[C@H](CO)NC(=O)[C@@H]1CSSC[C@H](NC(=O)[C@H](N)Cc2ccccc2)C(=O)N[C@@H](Cc2ccccc2)C(=O)N[C@H](Cc2c[nH]c3ccccc23)C(=O)N[C@@H](CCCCN)C(=O)N[C@@H]([C@@H](C)O)C(=O)N1 (H-[dF]CF[dW]KTC-{Threoninol(2S,3R)}; disulfide 2-7)
Not Active: IC50 (Endothelin-1 receptor) | IC50 [1] | IC50 [2] | IC50 [3] | IC50 [4] | Ki [4] | IC50 (Histamine H2 receptor)

S=C=Nc1cccc2ccccc12 [1-NAPHTHYLISOTHIOCYANATE]
Not Active: IC50 (Endothelin-1 receptor) | IC50 [1] | IC50 [2] | IC50 [3] | IC50 [4] | Ki [4] | IC50 (Histamine H2 receptor)

C[C@](O)(CS(=O)(=O)c1ccc(F)cc1)C(=O)Nc1ccc(C#N)c(C(F)(F)F)c1 [(R)-BICALUTAMIDE]
Not Active: IC50 (Endothelin-1 receptor) | IC50 [1] | IC50 [2] | IC50 [3] | IC50 [4] | Ki [4] | IC50 (Histamine H2 receptor)

CCCC(=O)Nc1ccc(OCC(O)CNC(C)C)c(C(C)=O)c1 (stereo unspecified) [ACEBUTOLOL]
Not Active: IC50 (Endothelin-1 receptor) | IC50 [1] | IC50 [2] | IC50 [3] | IC50 [4] | Ki [4] | IC50 (Histamine H2 receptor)

CC(=O)Nc1ccc(O)cc1 [ACETAMINOPHEN]
Not Active: IC50 (Endothelin-1 receptor) | IC50 [1] | IC50 [2] | IC50 [3] | IC50 [4] | Ki [4] | IC50 (Histamine H2 receptor)

COc1cc2c(c3oc(=O)c4c(c13)CCC4=O)[C@@H]1C=CO[C@@H]1O2 [AFLATOXIN]
Not Active: IC50 (Endothelin-1 receptor) | Ki (Endothelin-1 receptor) | IC50 [1] | Ki [1] | IC50 [2] | Ki [2] | IC50 [3] | Ki [3] | IC50 [4] | Ki [4] | IC50 (Histamine H2 receptor) | Ki (Histamine H2 receptor)

N=C(N)NC(=O)c1nc(Cl)c(N)nc1N [AMILORIDE]
Not Active: IC50 (Endothelin-1 receptor) | IC50 [1] | IC50 [2] | IC50 [3] | IC50 [4] | Ki [4] | IC50 (Histamine H2 receptor)

Cc1cc(=O)n(-c2ccccc2)n1C [ANTIPYRINE]
Not Active: IC50 (Endothelin-1 receptor) | IC50 [1] | IC50 [2] | IC50 [3] | IC50 [4] | Ki [4] | IC50 (Histamine H2 receptor)

CN1C(=O)COc2c(C(=O)NC3CN4CCC3CC4)cc(Cl)cc21 (stereo unspecified) [AZASETRON]
Not Active: IC50 (Endothelin-1 receptor) | IC50 [1] | IC50 [2] | IC50 [3] | IC50 [4] | Ki [4] | IC50 (Histamine H2 receptor)

C[C@H]1C[C@H]2[C@@H]3CCC4=CC(=O)C=C[C@]4(C)[C@@]3(Cl)[C@@H](O)C[C@]2(C)[C@@]1(O)C(=O)CO [BECLOMETHASONE]
Not Active: IC50 (Endothelin-1 receptor) | IC50 [1] | IC50 [2] | IC50 [3] | IC50 [4] | Ki [4] | IC50 (Histamine H2 receptor)

CCOC(=O)[C@H](CCc1ccccc1)N[C@H]1CCc2ccccc2N(CC(=O)O)C1=O [BENAZEPRIL]
Not Active: IC50 (Endothelin-1 receptor) | IC50 [1] | IC50 [2] | IC50 [3] | IC50 [4] | Ki [4] | IC50 (Histamine H2 receptor)

Nc1c(CC(=O)O)cccc1C(=O)c1ccc(Br)cc1 [BROMFENAC]
Not Active: IC50 (Endothelin-1 receptor) | IC50 [1] | IC50 [2] | IC50 [3] | IC50 [4] | Ki [4] | IC50 (Histamine H2 receptor)

CCCCN1CCCCC1C(=O)Nc1c(C)cccc1C.Cl (stereo unspecified) [BUPIVACAINE HYDROCHLORIDE]
Not Active: IC50 (Endothelin-1 receptor) | IC50 [1] | IC50 [2] | IC50 [3] | IC50 [4] | Ki [4] | IC50 (Histamine H2 receptor)

O=C1CC2(CCCC2)CC(=O)N1CCCCN1CCN(c2ncccn2)CC1 [BUSPIRONE]
Not Active: IC50 (Endothelin-1 receptor) | IC50 [1] | IC50 [2] | IC50 [3] | IC50 [4] | Ki [4] | IC50 (Histamine H2 receptor)

C[C@@]12C(=O)OC(=O)[C@]1(C)[C@H]1CC[C@@H]2O1 [CANTHARIDIN]
Not Active: IC50 (Endothelin-1 receptor) | IC50 [1] | IC50 [2] | IC50 [3] | IC50 [4] | Ki [4] | IC50 (Histamine H2 receptor)

O=NN(CCCl)C(=O)NCCCl [CARMUSTINE]
Not Active: IC50 (Endothelin-1 receptor) | IC50 [1] | IC50 [2] | IC50 [3] | IC50 [4] | Ki [4] | IC50 (Histamine H2 receptor)

OC(CCN1CCCCC1)(c1ccccc1)C1CCCCC1 (stereo unspecified) [TRIHEXYPHENIDYL]
Not Active: IC50 (Endothelin-1 receptor) | IC50 [1] | IC50 [2] | IC50 [4] | Ki [4] | IC50 (Histamine H2 receptor)
